Assay results reported in patent US20070249725A1, “Pharmaceutical formulations of sympathetic antagonist for the treatment of chronic muscle pain” (priority 2006, published 2007).
Structures can show the parent of a compound that is named as a salt.

Assay: Adverse events in subjects treated by trigger point injection (Example 1)
Format: in vivo, human
Experimental: A total of 326 male and female subjects, approximately 15 to 85 years old with pain of 4-72 month duration were treated with various doses of phenoxybenzamine. If a potential subject had pain that was clearly muscular and clearly not due to arthritis, nerve root compression or other extramuscular cause, the subject was considered a candidate for phenoxybenzamine hydrochloride injection. Trigger points were identified by palpation. A monopolar EMG needle was then inserted into the trigger point. Another monopolar EMG needle was inserted into a nearby nontender fibers of the same muscle. […] The treatment was repeated in up to 10-12 trigger points per treatment session. Subjects could return for up to 6 treatment sessions, depending on the extent of their pain. The initial treatment was with a dose of 25 mg of phenoxybenzamine hydrochloride in an injection volume of 2 ml. […] For 318 subjects, data were available for analysis for the doses of phenoxybenzamine hydrochloride used, efficacy and incidence of serious adverse events.
The frequencies of other adverse events occurring in the first 199 subjects treated, including the first 87 subjects treated with the 3 mg dose, are given in the table below. Results with an additional 131 subjects treated with the 3 mg dose have been similar.

[1] = 3 mg, multiple injections, N 87
[2] = 10-12.5 mg, multiple injections, N 89
[3] = 10-25 mg, single injection, N 23

## CC(COc1ccccc1)N(CCCl)Cc1ccccc1 (stereo not drawn) [Phenoxybenzamine Hydrochloride, phenoxybenzamine hydrochloride]
3 mg dose
  frequencies of adverse events in additional 131 subjects compared with Table 3: similar
[1]
  Bruising at injection site, % of subjects: (1%)
  Bruising at injection site, number of subjects: 1
  Burning, % of subjects: (0%)
  Cold sensation, % of subjects: (0%)
  Diaphoresis, % of subjects: (0%)
  Diarrhea, % of subjects: (0%)
  Dizziness, % of subjects: (3%)
  Dizziness, number of subjects: 3
  Dry mouth, % of subjects: (0%)
  Dysphagia, % of subjects: (0%)
  Dyspnea, % of subjects: (1%)
  Dyspnea, number of subjects: 1
  Epistaxis, % of subjects: (0%)
  Fatigue, % of subjects: (3%)
  Fatigue, number of subjects: 3
  Fever, % of subjects: (0%)
  Flu syndrome, % of subjects: (1%)
  Flu syndrome, number of subjects: 1
  Hair disorder, % of subjects: (1%)
  Hair disorder, number of subjects: 1
  Headache, % of subjects: (3%)
  Headache, number of subjects: 3
  Hypesthesia, % of subjects: (0%)
  Injection site drainage, % of subjects: (0%)
  Injection site soreness, % of subjects: (21%)
  Injection site soreness, number of subjects: 18
  Injection site swelling, % of subjects: 23%
  Injection site swelling, number of subjects: 20
  Lethargy, % of subjects: (1%)
  Lethargy, number of subjects: 1
  Lightheadedness, % of subjects: (0%)
  Nasal disorder, % of subjects: (0%)
  Nausea, % of subjects: (2%)
  Nausea, number of subjects: 2
  Pain, % of subjects: (5%)
  Pain, number of subjects: 4
  Palpitations, % of subjects: (0%)
  Paresthesia, % of subjects: (0%)
  Pharyngitis, % of subjects: (0%)
  Pruritis, % of subjects: (0%)
  Rash, % of subjects: 0%
  Stiffness, % of subjects: (1%)
  Stiffness, number of subjects: 1
  Swelling, % of subjects: (0%)
  Syncope, % of subjects: (0%)
  Tachycardia, % of subjects: (0%)
  Taste disorder, % of subjects: (1%)
  Taste disorder, number of subjects: 1
  Tremor, % of subjects: (1%)
  Tremor, number of subjects: 1
  Vomiting, % of subjects: (0%)
[2]
  Bruising at injection site, % of subjects: (11%)
  Bruising at injection site, number of subjects: 10
  Burning, % of subjects: (3%)
  Burning, number of subjects: 3
  Cold sensation, % of subjects: (1%)
  Cold sensation, number of subjects: 1
  Diaphoresis, % of subjects: (1%)
  Diaphoresis, number of subjects: 1
  Diarrhea, % of subjects: (2%)
  Diarrhea, number of subjects: 2
  Dizziness, % of subjects: (20%)
  Dizziness, number of subjects: 18
  Dry mouth, % of subjects: (1%)
  Dry mouth, number of subjects: 1
  Dysphagia, % of subjects: (0%)
  Dyspnea, % of subjects: (3%)
  Dyspnea, number of subjects: 3
  Epistaxis, % of subjects: (0%)
  Fatigue, % of subjects: (4%)
  Fatigue, number of subjects: 4
  Fever, % of subjects: (1%)
  Fever, number of subjects: 1
  Flu syndrome, % of subjects: (1%)
  Flu syndrome, number of subjects: 1
  Hair disorder, % of subjects: (0%)
  Headache, % of subjects: (10%)
  Headache, number of subjects: 9
  Hypesthesia, % of subjects: (4%)
  Hypesthesia, number of subjects: 4
  Injection site drainage, % of subjects: (2%)
  Injection site drainage, number of subjects: 2
  Injection site soreness, % of subjects: (37%)
  Injection site soreness, number of subjects: 33
  Injection site swelling, % of subjects: 45%
  Injection site swelling, number of subjects: 40
  Lethargy, % of subjects: (0%)
  Lightheadedness, % of subjects: (13%)
  Lightheadedness, number of subjects: 12
  Nasal disorder, % of subjects: (2%)
  Nasal disorder, number of subjects: 2
  Nausea, % of subjects: (18%)
  Nausea, number of subjects: 16
  Pain, % of subjects: (0%)
  Palpitations, % of subjects: (1%)
  Palpitations, number of subjects: 1
  Paresthesia, % of subjects: (3%)
  Paresthesia, number of subjects: 3
  Pharyngitis, % of subjects: (1%)
  Pharyngitis, number of subjects: 1
  Pruritis, % of subjects: (1%)
  Pruritis, number of subjects: 1
  Rash, % of subjects: 2%
  Rash, number of subjects: 2
  Stiffness, % of subjects: (2%)
  Stiffness, number of subjects: 2
  Swelling, % of subjects: (2%)
  Swelling, number of subjects: 2
  Syncope, % of subjects: (7%)
  Syncope, number of subjects: 6
  Tachycardia, % of subjects: (0%)
  Taste disorder, % of subjects: (2%)
  Taste disorder, number of subjects: 2
  Tremor, % of subjects: (1%)
  Tremor, number of subjects: 1
  Vomiting, % of subjects: (8%)
  Vomiting, number of subjects: 7
[3]
  Bruising at injection site, % of subjects: (0%)
  Burning, % of subjects: (4%)
